Tests used:
[1] = tested on: SR; assay: panel of 60 human tumor cell lines, growth inhibition (Leukemia)
[2] = tested on: MDA-MB-435; assay: panel of 60 human tumor cell lines, growth inhibition (Melanoma)
[3] = tested on: SK-MEL-28; assay: as above
[4] = tested on: UACC-62; assay: as above
[5] = tested on: SF-539; assay: panel of 60 human tumor cell lines, growth inhibition (CNS Cancer)
[6] = tested on: SNB-19; assay: as above
[7] = tested on: SNB-75; assay: as above
[8] = tested on: COLO 205; assay: panel of 60 human tumor cell lines, growth inhibition (Colon Cancer)
[9] = tested on: HCC-2998; assay: as above; details: for Percent Growth: HCC-2998

`C=C1C(=O)O[C@H]2[C@H]1CC/C(COC(=O)NCCc1ccccn1)=C\CC[C@@]1(C)O[C@@H]21` [JVM 61, ((1aR,7aS,10aS,10bS,E)-1a-methyl-8-methylene-9-oxo-1a,2,3,6,7,7a,8,9,10a,10b-decahydrooxireno[2′,3′:9,10]cyclodeca[1,2-b]furan-5-yl)methyl-(2-(pyridin-2-yl)ethyl)carbamate] gave a GI50 ([1]; Homo sapiens) of 4.1 µM, a CC50 ([1]; Homo sapiens, read-out: LC50) of over 100 µM and an IC (TGI) ([1]; Homo sapiens, read-out: TGI) of 24.6 µM. For the same compound, the “Percent Growth” value ([1]; Log10 Concentration −4.0) was −34%, the “Percent Growth” value ([1]; Log10 Concentration −5.0) was 22% and the “Percent Growth” value ([1]; Log10 Concentration −6.0) was 95%. The “Percent Growth” value ([1]; Log10 Concentration −7.0) was 100%, the “Percent Growth” value ([1]; Log10 Concentration −8.0) was 99% and the GI50 ([2]; Homo sapiens, MDA-MB-435) was 6.01 µM. The CC50 ([2]; Homo sapiens, MDA-MB-435, read-out: LC50) was 82.4 µM, the IC (TGI) ([2]; Homo sapiens, MDA-MB-435, read-out: TGI) was 24.7 µM and the “Percent Growth” value ([2]; MDA-MB-435, Log10 Concentration −4.0) was −58%. The “Percent Growth” value ([2]; MDA-MB-435, Log10 Concentration −5.0) was 38%, the “Percent Growth” value ([2]; MDA-MB-435, Log10 Concentration −6.0) was 94% and the “Percent Growth” value ([2]; MDA-MB-435, Log10 Concentration −7.0) was 94%. For the same compound, the “Percent Growth” value ([2]; MDA-MB-435, Log10 Concentration −8.0) was 97%, the GI50 ([3]; Homo sapiens, SK-MEL-28) was 5.25 µM and the CC50 ([3]; Homo sapiens, SK-MEL-28, read-out: LC50) was 45.5 µM. For the same compound, the IC (TGI) ([3]; Homo sapiens, SK-MEL-28, read-out: TGI) was 18.1 µM, the “Percent Growth” value ([3]; SK-MEL-28, Log10 Concentration −4.0) was −93% and the “Percent Growth” value ([3]; SK-MEL-28, Log10 Concentration −5.0) was 32%. The “Percent Growth” value ([3]; SK-MEL-28, Log10 Concentration −6.0) was 96%, the “Percent Growth” value ([3]; SK-MEL-28, Log10 Concentration −7.0) was 96% and the “Percent Growth” value ([3]; SK-MEL-28, Log10 Concentration −8.0) was 104%. For the same compound, the GI50 ([4]; Homo sapiens, UACC-62) was 6.29 µM, the CC50 ([4]; Homo sapiens, UACC-62, read-out: LC50) was 49 µM and the IC (TGI) ([4]; Homo sapiens, UACC-62, read-out: TGI) was 20.3 µM. For the same compound, the “Percent Growth” value ([4]; UACC-62, Log10 Concentration −4.0) was −90%, the “Percent Growth” value ([4]; UACC-62, Log10 Concentration −5.0) was 40% and the “Percent Growth” value ([4]; UACC-62, Log10 Concentration −6.0) was 89%. The “Percent Growth” value ([4]; UACC-62, Log10 Concentration −7.0) was 92%, the “Percent Growth” value ([4]; UACC-62, Log10 Concentration −8.0) was 100% and the GI50 ([5]; Homo sapiens, SF-539) was 5.77 µM. The CC50 ([5]; Homo sapiens, SF-539, read-out: LC50) was 43.2 µM, the IC (TGI) ([5]; Homo sapiens, SF-539, read-out: TGI) was 15.4 µM and the “Percent Growth” value ([5]; SF-539, Log10 Concentration −4.0) was −99%. The “Percent Growth” value ([5]; SF-539, Log10 Concentration −5.0) was 36%, the “Percent Growth” value ([5]; SF-539, Log10 Concentration −6.0) was 96% and the “Percent Growth” value ([5]; SF-539, Log10 Concentration −7.0) was 97%. The “Percent Growth” value ([5]; SF-539, Log10 Concentration −8.0) was 103%, the GI50 ([6]; Homo sapiens, SNB-19) was 27.7 µM and the CC50 ([6]; Homo sapiens, SNB-19, read-out: LC50) was over 100 µM. The IC (TGI) ([6]; Homo sapiens, SNB-19, read-out: TGI) was 160 µM, the “Percent Growth” value ([6]; SNB-19, Log10 Concentration −4.0) was 3% and the “Percent Growth” value ([6]; SNB-19, Log10 Concentration −5.0) was 88%. The “Percent Growth” value ([6]; SNB-19, Log10 Concentration −6.0) was 94%, the “Percent Growth” value ([6]; SNB-19, Log10 Concentration −7.0) was 93% and the “Percent Growth” value ([6]; SNB-19, Log10 Concentration −8.0) was 97%. For the same compound, the GI50 ([7]; Homo sapiens, SNB-75) was 3.78 µM, the CC50 ([7]; Homo sapiens, SNB-75, read-out: LC50) was 48.4 µM and the IC (TGI) ([7]; Homo sapiens, SNB-75, read-out: TGI) was 18.6 µM. For the same compound, the “Percent Growth” value ([7]; SNB-75, Log10 Concentration −4.0) was −88%, the “Percent Growth” value ([7]; SNB-75, Log10 Concentration −5.0) was 32% and the “Percent Growth” value ([7]; SNB-75, Log10 Concentration −6.0) was 74%. For the same compound, the “Percent Growth” value ([7]; SNB-75, Log10 Concentration −7.0) was 76%, the “Percent Growth” value ([7]; SNB-75, Log10 Concentration −8.0) was 81% and the “Percent Growth” value ([8]; COLO 205, Log10 Concentration −4.0) was −79%. For the same compound, the “Percent Growth” value ([8]; COLO 205, Log10 Concentration −5.0) was 3%, the “Percent Growth” value ([8]; COLO 205, Log10 Concentration −6.0) was 107% and the “Percent Growth” value ([8]; COLO 205, Log10 Concentration −7.0) was 108%. The “Percent Growth” value ([8]; COLO 205, Log10 Concentration −8.0) was 104%, the GI50 ([8]; Homo sapiens, COLO 205) was 3.54 µM and the CC50 ([8]; Homo sapiens, COLO 205, read-out: LC50) was 44.6 µM. For the same compound, the IC (TGI) ([8]; Homo sapiens, COLO 205, read-out: TGI) was 11 µM, the “Percent Growth” value ([9]; Log10 Concentration −4.0) was −86% and the “Percent Growth” value ([9]; Log10 Concentration −5.0) was 87%. The “Percent Growth” value ([9]; Log10 Concentration −6.0) was 100%, the “Percent Growth” value ([9]; Log10 Concentration −7.0) was 103% and the “Percent Growth” value ([9]; Log10 Concentration −8.0) was 101%. The GI50 ([9]; Homo sapiens, HCC 2998) was 16.3 µM, the CC50 ([9]; Homo sapiens, HCC 2998, read-out: LC50) was 62.1 µM and the IC (TGI) ([9]; Homo sapiens, HCC 2998, read-out: TGI) was 31.8 µM.

From patent US9469650B2, “Melampomagnolide B derivatives” (BOARD OF TRUSTEES OF THE UNIVERSITY OF ARKANSAS, priority 2013, dated 2016)
